Assay results taken from US9267129B2, “Compositions and methods for conferring herbicide resistance” (BEN-GURION UNIVERSITY OF THE NEGEV RESEARCH AND DEVELOPMENT …, priority 2011, dated 2016).

Target: T1, PiAHAS mutant W605S (Lobosphaera incisa, UniProt I3VJH2, W604S)
T1 sequence (I3VJH2 with tags, fused parts or gaps W604S): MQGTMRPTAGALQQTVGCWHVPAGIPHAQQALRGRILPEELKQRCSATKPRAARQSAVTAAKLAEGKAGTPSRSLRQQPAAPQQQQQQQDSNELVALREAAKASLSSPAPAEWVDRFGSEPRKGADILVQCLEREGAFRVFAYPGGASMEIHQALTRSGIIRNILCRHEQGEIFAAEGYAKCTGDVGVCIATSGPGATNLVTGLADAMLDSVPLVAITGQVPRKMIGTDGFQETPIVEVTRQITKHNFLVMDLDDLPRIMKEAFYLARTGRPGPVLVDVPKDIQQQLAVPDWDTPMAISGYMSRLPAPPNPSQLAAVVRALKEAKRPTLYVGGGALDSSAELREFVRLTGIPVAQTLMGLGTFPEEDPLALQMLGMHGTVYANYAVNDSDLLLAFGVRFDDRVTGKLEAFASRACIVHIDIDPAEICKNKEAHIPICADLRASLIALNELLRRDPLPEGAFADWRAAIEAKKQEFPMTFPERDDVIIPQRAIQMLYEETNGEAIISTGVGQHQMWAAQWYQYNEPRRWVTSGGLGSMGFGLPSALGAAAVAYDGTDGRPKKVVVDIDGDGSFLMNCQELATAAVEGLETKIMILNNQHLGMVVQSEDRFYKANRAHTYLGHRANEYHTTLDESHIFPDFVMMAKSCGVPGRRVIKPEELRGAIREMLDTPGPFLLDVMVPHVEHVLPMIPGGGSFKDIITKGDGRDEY
Assay: PiAHAS in vitro enzyme assay, inhibition by SMM (mutant)
Type: biochemical, Parietochloris incisa
Settings: even at high concentrations of 200 μM
Protocol: To overexpress the hexahistidine (6xHis)-tagged PiAHAS genes in E. coli strain JM109, plasmids pQE-WT and pQE-MUT were used. These plasmids were constructed by inserting the BamHI-SalI fragment containing the cloned PiAHAS wt and mutant genes into plasmid pQE30 (Qiagen, Hilden, Germany). These plasmids express PiAHAS fused at its N-terminus to the pQE30 6xHis leader. pQE-WT and pQE-MUT were transformed into E. coli for expression. […] The AHAS catalytic activity was determined as previously described (Bar-Ilan A et al. Binding and activation of thiamin diphosphate in acetohydroxyacid synthase. Biochemistry (N.Y.) 2001, 40, 11946-11954). […] Km for pyruvate and Ki for SMM were determined by varying the concentration of the factor in question. Protein concentration was determined by the dye-binding method of Bradford (Bradford MM. A rapid and sensitive method for the quantitation of microgram quantities of protein utilizing the principle of protein-dye binding. Anal. Biochem. 1976, 72, 248-254), with bovine serum albumin as standard. […]
The Ki was determined to be >30×106, 7 orders of magnitude higher than that of the wild type.

COC(=O)c1ccccc1S(=O)(=O)NC(=O)Nc1nc(C)cc(C)n1 [SMM, sulfometuron methyl]
inhibition of enzyme by SMM: strong resistance
